Like-named read-outs stand apart in the source and are kept apart here.
Tests used:
[1] = system: Human renal cortical epithelial cells; experiment: Primary cell cytotoxicity, MTS assay; type: cell-based; conditions: 24 hrs or 72 hrs exposure, DAS181 various concentrations, 0.2% thimerosol, 1 mM CdCl2
From the text: (§1) Primary cryopreserved human renal cells (Proximal Tubule Epethelial and Cortical Epethelial cells) were thawed, plated, and propagated according to Cambrex’s recommended protocol. Both renal cell lines were thawed and plated at a seeding density of 2500 cells/cm^2 with Renal Epethelial Basal Medium (REBM) supplemented with Cambrex REGM SingleQuots® (Cambrex CC-4127); which includes recombinant human epidermal growth factor, insulin, GA-1000, 0.5% Fetal Bovine Serum, hydrocortisone, transferrin, epinephrine, and triiodothyronine (T3). The cells were allowed to adhere and equilibrate for 24 hours at 37°C with 5% CO2. […] All the renal cells were further subcultured and seeded into 10 tissue culture-coated 24 well plates per cell line at a seeding density of 2.5x10^3 cells/cm^2. Once the cells reached approximately 70% confluency the 24 well plates were used in cytotoxicity experiments using the REBM supplemented with the REGM SingleQuots®.
(§2) On Day 0 the cell media supernatants were initially collected for baseline controls, before adding fresh media supplemented with either PBS, DAS181 (indicated concentrations), or thimerosal (0.2%) or CdCl^2 (1mM) to serve as positive controls for cytotoxicity. All treatment groups were done in triplicate. Treatments were left on for either 24 hrs or 72 hrs. Subsequently, for the 24 hr exposure conditions fresh media without test article was added to all the wells every 24 hours on days 1-3 (24-72 hours post-treatment); a subset of the wells were used for MTS assay each day. For the 72 hr exposure conditions the media was only changed at 72 hrs, immediately prior to MTS assay. Renal cell media interfered with Lactate Dehydrogenase (LDH) and Alkaline Phosphatase (ALP) assays so these were not performed.
(§3) At each endpoint (24, 48, or 72 hrs) the old media was first replaced with fresh warm media (500uL/well) and the samples were then tested for cell viability using the CellTiter 96® Aqueous Non-Radioactive Cell Proliferation Assay (MTS) kit (Promega, Madison, WI). […] 100μL of each sample was then added to a 96 well plate and read for absorbance at 490 nm. A 1:5 dilution of MTS solution in growth media alone was used as the background. For data analysis, background values were subtracted from all sample values. Values were then normalized using the vehicle control as 100%. Each sample was compared to the vehicle control, via ANOVA with Bonferroni post-test, to determine if there was a statistically significant change in cell viability.

[2] = system: Human renal proximal tubule cells; experiment: Primary cell cytotoxicity, MTS assay; type: cell-based; conditions: 24 hrs or 72 hrs exposure, DAS181 various concentrations, 0.2% thimerosol, 1 mM CdCl2
From the text: as §1, §2, §3

A/HongKong/2637/04 = type: cell-based, IFV A (H1N1)
A/HongKong/2765/04 = type: cell-based, IFV A (H1N1)
A/NewJersey/15/07 = type: cell-based, IFV A (H1N1)
A/Hawaii/21/07 = type: cell-based, IFV A (H1N1)
A/St.Louis/539/09 = type: cell-based, IFV A (H1N1)
A/St.Louis/746/09 = type: cell-based, IFV A (H1N1)
A/St.Louis/775/09 = type: cell-based, IFV A (H1N1)
A/St.Louis/758/09 = type: cell-based, IFV A (H1N1)
A/St.Louis/630/09 = type: cell-based, IFV A (H1N1)
A/St.Louis/764/09 = type: cell-based, IFV A (H1N1)
A/St.Louis/690/09 = type: cell-based, IFV A (H1N1)
A/St.Louis/790/09 = type: cell-based, IFV A (H1N1)
A/St.Louis/792/09 = type: cell-based, IFV A (H1N1)
[3] = molecular target: NA enzymatic activity of A/Georgia/17/2006 WT (Influenza A virus (H1N1), UniProt A7UPL3); experiment: Chemiluminescent neuraminidase activity inhibition (NI) assay; type: biochemical; conditions: for IC50: A/Georgia/17/2006 WT reference virus, mean of triplicate analysis; for R/S: A/Georgia/17/2006 WT, NI assay
Protocol: (§4) The chemiluminescent neuraminidase activity inhibition (NI) assay was conducted using a commercially available kit, NA-Star (Applied Biosystems, Foster City, CA) as previously described. Oseltamivir carboxylate and zanamivir were used at 10 half-log dilutions (0.03 to 1000 nM). Values shown represent mean of triplicate analysis.

[4] = molecular target: NA enzymatic activity of A/Hawaii/21/2007 (Influenza A virus (H1N1), UniProt B1AGI9); experiment: as above; type: biochemical, IFV A (H1N1); conditions: for R/S: A/Hawaii/21/2007, NI assay
Protocol: as §4

[5] = molecular target: NA enzymatic activity of A/St.Louis/539/09 (Influenza A virus, UniProt D0FH47); experiment: as above; type: biochemical, IFV A (H1N1); conditions: for R/S: NI assay; for IC50: mean of triplicate analysis
Protocol: as §4

[6] = molecular target: NA enzymatic activity of A/St.Louis/630/09 (Influenza A virus, UniProt D0FH48); experiment: as above; type: biochemical, IFV A (H1N1); conditions: for R/S: NI assay; for IC50: mean of triplicate analysis
Protocol: as §4

[7] = molecular target: NA enzymatic activity of A/St.Louis/690/09 (Influenza A virus, UniProt D0FH49); experiment: as above; type: biochemical, IFV A (H1N1); conditions: for R/S: NI assay; for IC50: mean of triplicate analysis
Protocol: as §4

[8] = molecular target: NA enzymatic activity of A/St.Louis/746/09 (Influenza A virus, UniProt D0FH50); experiment: as above; type: biochemical, IFV A (H1N1); conditions: for R/S: NI assay; for IC50: mean of triplicate analysis
Protocol: as §4

[9] = molecular target: NA enzymatic activity of A/St.Louis/764/09 (Influenza A virus, UniProt D0FH52); experiment: as above; type: biochemical, IFV A (H1N1); conditions: for R/S: NI assay; for IC50: mean of triplicate analysis
Protocol: as §4

[10] = molecular target: NA enzymatic activity of A/St.Louis/775/09 (Influenza A virus, UniProt D0FH53); experiment: as above; type: biochemical, IFV A (H1N1); conditions: for R/S: NI assay; for IC50: mean of triplicate analysis
Protocol: as §4

[11] = molecular target: NA enzymatic activity of A/St.Louis/790/09 (Influenza A virus, UniProt D0FH54); experiment: as above; type: biochemical, IFV A (H1N1); conditions: for R/S: NI assay; for IC50: mean of triplicate analysis
Protocol: as §4

[12] = molecular target: NA enzymatic activity of A/St.Louis/792/09 (Influenza A virus, UniProt D0FH55); experiment: as above; type: biochemical, IFV A (H1N1); conditions: for R/S: NI assay; for IC50: mean of triplicate analysis
Protocol: as §4

[Cl][Cd][Cl] [CdCl2, cadmium chloride]
Cell viability (MTS) vs PBS [1]: significant reduction in cell viability
Cell viability (MTS) vs PBS [2]: significant reduction in cell viability

CCC(CC)O[C@@H]1C=C(C(=O)O)C[C@H](N)[C@H]1NC(C)=O [oseltamivir, oseltamivir carboxylate]
EC50 (A/HongKong/2637/04; read-out: EC50): 3270 ± 1320 nM
EC50 (A/HongKong/2765/04; read-out: EC50): 2920 ± 1000 nM
EC50 (A/NewJersey/15/07; read-out: EC50): > 400000 nM
EC50 (A/Hawaii/21/07; read-out: EC50): > 285000 nM
EC50 (A/St.Louis/539/09; read-out: EC50): > 400000 nM
EC50 (A/St.Louis/746/09; read-out: EC50): > 400000 nM
EC50 (A/St.Louis/775/09; read-out: EC50): > 320000 nM
EC50 (A/St.Louis/758/09; read-out: EC50): > 400000 nM
EC50 (A/St.Louis/630/09; read-out: EC50): > 400000 nM
EC50 (A/St.Louis/764/09; read-out: EC50): > 400000 nM
EC50 (A/St.Louis/690/09; read-out: EC50): > 400000 nM
EC50 (A/St.Louis/790/09; read-out: EC50): > 304000 nM
EC50 (A/St.Louis/792/09; read-out: EC50): > 400000 nM
IC50 [3]: 0.37 nM
R/S [3]: S
R/S [4]: R
IC50 ([4]; A/Hawaii/21/2007 reference virus, mean of triplicate analysis): 110 nM
R/S [5]: R
IC50 [5]: 84.9 nM
R/S [6]: R
IC50 [6]: 224 nM
R/S [7]: R
IC50 [7]: 178 nM
R/S [8]: R
IC50 [8]: 89.9 nM
R/S [9]: R
IC50 [9]: 103 nM
R/S [10]: R
IC50 [10]: 91.8 nM
R/S [11]: R
IC50 [11]: 87.8 nM
R/S [12]: R
IC50 [12]: 91.5 nM

C[CH2][Hg][S]c1ccccc1C(=O)[O-].[Na+] [thimerosol]
Cell viability (MTS) vs PBS [1]: significant reduction in cell viability
Cell viability (MTS) vs PBS [2]: significant reduction in cell viability

CC(=O)N[C@H]1[C@H]([C@H](O)[C@H](O)CO)OC(C(=O)O)=C[C@@H]1N=C(N)N [zanamivir]
EC50 (A/HongKong/2637/04; read-out: EC50): 1820 ± 460 nM
EC50 (A/HongKong/2637/04; read-out: EC50 Zanamivir): 1820 ± 460 nM
EC50 (A/HongKong/2765/04; read-out: EC50): 4170 ± 530 nM
EC50 (A/HongKong/2765/04; read-out: EC50 Zanamivir): 4170 ± 530 nM
EC50 (A/NewJersey/15/07; read-out: EC50): 7020 ± 2460 nM
EC50 (A/NewJersey/15/07; read-out: EC50 Zanamivir): 7020 ± 2460 nM
EC50 (A/Hawaii/21/07; read-out: EC50): 45000 ± 22500 nM
EC50 (A/Hawaii/21/07; read-out: EC50 Zanamivir): 45000 ± 22500 nM
EC50 (A/St.Louis/539/09; read-out: EC50): > 332000 nM
EC50 (A/St.Louis/539/09; read-out: EC50 Zanamivir): > 332000 nM
EC50 (A/St.Louis/746/09; read-out: EC50): 1960 ± 420 nM
EC50 (A/St.Louis/746/09; read-out: EC50 Zanamivir): 1960 ± 420 nM
EC50 (A/St.Louis/775/09; read-out: EC50): 1200 ± 360 nM
EC50 (A/St.Louis/775/09; read-out: EC50 Zanamivir): 1200 ± 360 nM
EC50 (A/St.Louis/758/09; read-out: EC50): 7060 ± 2840 nM
EC50 (A/St.Louis/758/09; read-out: EC50 Zanamivir): 7060 ± 2840 nM
EC50 (A/St.Louis/630/09; read-out: EC50): 62100 ± 34800 nM
EC50 (A/St.Louis/630/09; read-out: EC50 Zanamivir): 62100 ± 34800 nM
EC50 (A/St.Louis/764/09; read-out: EC50): > 273000 nM
EC50 (A/St.Louis/764/09; read-out: EC50 Zanamivir): > 273000 nM
EC50 (A/St.Louis/690/09; read-out: EC50): > 182000 nM
EC50 (A/St.Louis/690/09; read-out: EC50 Zanamivir): > 182000 nM
EC50 (A/St.Louis/790/09; read-out: EC50): 3120 ± 1830 nM
EC50 (A/St.Louis/790/09; read-out: EC50 Zanamivir): 3120 ± 1830 nM
EC50 (A/St.Louis/792/09; read-out: EC50): > 156000 nM
EC50 (A/St.Louis/792/09; read-out: EC50 Zanamivir): > 156000 nM
IC50 [3]: 0.44 nM
R/S [3]: S
R/S [4]: S
R/S [5]: S
IC50 [5]: 0.28 nM
R/S [6]: S
IC50 [6]: 0.48 nM
R/S [7]: S
IC50 [7]: 0.44 nM
R/S [8]: S
IC50 [8]: 0.3 nM
R/S [9]: S
IC50 [9]: 0.3 nM
R/S [10]: S
IC50 [10]: 0.33 nM
R/S [11]: S
IC50 [11]: 0.29 nM
R/S [12]: S
IC50 [12]: 0.28 nM
